Test results published in patent US4631270A, “Therapeutically useful pseudopeptides, compositions containing the same and methods of preparation and use” (priority 1985, dated 1986).
Read-outs that look alike come from different tables or passages of the source.

Columns and labels:
[1] = system: repair-deficient strains of Bacillus subtilis; test: Mutagenicity test, variation of the Ames test (overall result); assay type: cell-based; conditions: results of Table 2b
Method: (§1) The mutagenicity of Gly .PSI. Leu and Gly .PSI. Ile was examined by a variation of the Ames test using repair-deficient strains of Bacillus subtilis.
(§2) The specific procedures by which these tests were conducted are described in the following references: […]

Wild type = test: Mutagenicity test, growth inhibition, wild type strain; assay type: cell-based, Bacillus subtilis; conditions: concentration 0.1 M
Method: as §1, §2

MC-1 = test: Mutagenicity test, growth inhibition, strain MC-1; assay type: cell-based, Bacillus subtilis; conditions: concentration 0.1 M
Method: as §1, §2

Hcr-9 = test: Mutagenicity test, growth inhibition, strain Hcr-9; assay type: cell-based, Bacillus subtilis
Method: as §1, §2

FB-13 = test: Mutagenicity test, growth inhibition, strain FB-13; assay type: cell-based, Bacillus subtilis; conditions: concentration 0.1 M
Method: as §1, §2

Pol A = test: Mutagenicity test, growth inhibition, strain Pol A; assay type: cell-based, Bacillus subtilis; conditions: concentration 0.1 M
Method: as §1, §2

Swiss Wistar mice = test: Acute toxicity and weight gain of Swiss Wistar mice injected I.P.; assay type: in vivo; conditions: dose levels 44-432 mg/Kg, five mice per dose level
Method: One example of the low toxicity of the compounds of this invention is the results achieved with mice on treatment with Gly .PSI. Leu. In the test Swiss Wistar mice were injected I.P. with Gly .PSI. Leu at the dose levels indicated below. Five mice were tested at each dose level. […] The behavior of the animals was observed closely for 7 days after injection.

[2] = system: methionine adenosyl transferase (MAT)
Description: Possible mutagenic effects of pseudodipeptides were examined two ways. One possible route for a metabolic complication is via the action of methionine adenosyl transferase (MAT). Ethionine (which contains a thiomethylene linkage) is known to be both a carcinogen and a substrate for MAT.

[3] = rapid destruction by proteolysis; cited from earlier work

Compound | mutagenicity [1] | Growth Inhibition of Bacterial Strains in mm, Wild type (Wild type) [mm] | Growth Inhibition of Bacterial Strains in mm, MC-1 (MC-1) [mm] | Growth Inhibition of Bacterial Strains in mm, Hcr-9 (Hcr-9) [mm] | Growth Inhibition of Bacterial Strains in mm, FB-13 (FB-13) [mm] | Growth Inhibition of Bacterial Strains in mm, Pol A (Pol A) [mm] | signs of acute toxicity (Swiss Wistar mice) | Counts/Min transferred ([2]; Expt I, concentration 12 mM, None = 15,760) | Counts/Min transferred ([2]; Expt II, concentration 80 mM, None = 7,380) | effect on MAT activity ([2]; possible substrate or competitive inhibitor of MAT) | Growth Inhibition of Bacterial Strains in mm, Hcr-9 (Hcr-9; concentration 0.1 M) [mm] | biological half-life [3] [min.]
CC[C@H](C)[C@H](SCCN)C(=O)O [Gly .PSI. Ile] | neither Gly .PSI. Leu nor Gly .PSI. Ile behaves as a mutagen | 0 | 0 | 0 | 0 | 0 | – | – | – | – | – | –
CC(C)CC(SCCN)C(=O)O (centres unmarked) [Gly .PSI. Leu, pseudoglycylleucine] | neither Gly .PSI. Leu nor Gly .PSI. Ile behaves as a mutagen | 0 | 0 | – | 0 | 0 | In no case did any of the mice show any signs of acute toxicity | 16,620 Counts/Min | 7,990 Counts/Min | neither Gly .PSI. Leu nor Gly .PSI. D-Leu has a measurable effect on MAT activity | 0 | –
pGlu-His-Trp-Ser-Tyr-Gly-Leu-Arg-Pro-Gly-NH2 [Luteinizing hormone-releasing hormone] | – | – | – | – | – | – | – | – | – | – | – | 2
